Experimental data taken from patent US20160082133A1, “CHEMICAL EXCHANGE SATURATION TRANSFER (CEST) BASED MRI USING REPORTER GENES AND SUBSTRATES AND METHODS THEREOF” (The Johns Hopkins University, priority 2013, published 2016).

Columns and labels:
9L cells [1] = experiment: CEST MRI of culture media, CDase activity in 9L cells; format: cell-based, Rat; settings: CDase-expressing 9L cells, 48 h incubation
Source text: (§1) All MR images were acquired with a 9.4T Bruker Avance system equipped with a 15 mm sawtooth RF coil. A modified RARE sequence (TR=6.0 sec, effective TE=43.2 ms, RARE factor=16, slice thickness=0.7 mm, FOV=14×14 mm, matrix size=128×64, resolution=0.11×0.22 mm^2, and NA=2) including a magnetization transfer (MT) module (one CW pulse, B=[…] (150 Hz), 3 sec) was used to acquire CEST-weighted images from −6 ppm to 6 ppm (step=0.2 ppm) around the water resonance (0 ppm). The absolute water resonant frequency shift was measured using a Water Saturation Shift Reference (WASSR) (Kim, M. et al. Magnetic Resonance in Medicine 2009, 61, 1441) method modified (Liu, G. et al. Contrast Media Mol Imaging 2010, 5, 162) with Lorentzian analysis. […]
(§2) Data processing was performed using custom-written scripts in MATLAB (Mathworks, Waltham, Mass.). CEST spectra were calculated from the mean of an ROI placed over each sample after B0 correction of the contrast on a per voxel basis. The CEST signal was quantified using MTRasym at specific offsets of interest (i.e., &ω=+2 ppm for cytosine or +2.4 ppm for 5FC) using the definition: MTRasym=(S^−˜ω−S^+″ω)/S0, where and s[−˜ω, +Aω] is the water signal intensity in the presence of a saturation pulse at offsets ±Aω, and S0 is water signal intensity in the absence of a saturation pulse. […]

[2] = biological target: T1, Escherichia coli CDase (CodA) (Escherichia coli, UniProt P25524); experiment: Deamination by crude recombinant CDase extracts measured using CEST MRI; format: biochemical; settings: 20 mM substrate, crude CDase extract, 37° C.
T1 construct: 6xHis (C); made in house; host or cells: E. coli BL21 (DE3), crude protein extract
T1 sequence (P25524 whole entry): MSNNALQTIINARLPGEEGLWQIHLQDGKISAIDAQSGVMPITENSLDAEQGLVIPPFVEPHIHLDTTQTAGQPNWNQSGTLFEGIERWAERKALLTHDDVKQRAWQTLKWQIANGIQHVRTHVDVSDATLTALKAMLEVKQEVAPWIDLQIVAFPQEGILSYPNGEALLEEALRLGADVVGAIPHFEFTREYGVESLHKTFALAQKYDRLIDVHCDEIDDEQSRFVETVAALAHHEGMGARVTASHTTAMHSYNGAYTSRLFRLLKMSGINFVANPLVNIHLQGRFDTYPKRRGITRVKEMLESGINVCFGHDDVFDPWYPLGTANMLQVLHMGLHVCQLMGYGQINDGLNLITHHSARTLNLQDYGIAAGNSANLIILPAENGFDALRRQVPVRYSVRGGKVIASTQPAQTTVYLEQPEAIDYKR
Description: FIGS. 9A-9D show monitoring of recombinant CDase activity using CEST MRI. (FIG. 9A) Western blot using an anti-six-histidine-tag antibody of protein extracts from E. coli engineered to express CD or HSV1-tk (TK). (FIG. 9B) Deamination of cytosine and 5FC (20 mM) by crude CDase extracts measured using CEST MRI at 37° C. and 9.4 T. Conversion was quantified as (1−MTR^tasym/MTR^0asym)×100%, where MTR^tasym/MTR^0asym are the contrasts at time t, and at t=0, respectively. (FIG. 9C, D) maps and statistical analysis (two tailed unpaired students t-test; n=3) of 20 mM (FIG. 9C) cytosine and (FIG. 9D) 5 FC incubated with CDase (0.6 ug crude protein) for 24 hours.
The gene encoding the E. coli Cytosine Deaminase (CDase, CodA) was obtained from the American Type Culture Collection (ATCC Cat. 4099). […] Both genes were sub-cloned into the pEXP5-CT expression vector (Invitrogen) in a reading frame with a C-terminal six-histidine tag under a T7 promoter. […] The recombinant proteins were expressed after induction in Magic Media™ (Invitrogen), and both could be detected with Western blot using an anti-6-histidine tag antibody. […]
Data processing was performed using custom-written scripts in MATLAB (Mathworks, Waltham, Mass.). CEST spectra were calculated from the mean of an ROI placed over each sample after B0 correction of the contrast on a per voxel basis. […]

HEK293FT = experiment: Cell proliferation assay, HEK293FT; format: cell-based, Human; settings: CD-transduced HEK293FT, 10 mM 5FC, 40 hours
Description: (§3) Both wild type- and CD-transduced cells were plated in 96-well cell culture plates to reach a sufficient cell number before 5FC treatment. Then media were replaced with media containing 10 mM 5FC. After 40 hours of incubation, cell viability was determined using a […] assay kit (Invitrogen).

C17.2 cells = experiment: 19F NMR detection of conversion of 5FC to 5FU, C17.2 cells; format: cell-based, mouse; set-up: key: (−): no 5FU was detected; settings: 10 mM 5FC
Description: (§4) For each cell type, the same number of transduced (CD) or non-transduced (wild type, WT) cells were plated into 6-well plates (5.6×10^6 HEK293FT cells, 10^6 9 L cells, and 1.4×10^6 C17.2 cells, respectively). Approximately 6 hours later, fresh culture medium containing 7 mM cytosine or 10 mM 5FC was added to the cells. Fifty microliters of the culture media were collected at different time points up to 24 hours for HEK293FT cells (i.e. 0.5, 4, 6, and 24 hours), and up to 48 hours for the other two cell lines (i.e., 0.5, 4, 6, 24, and 48 hours). These samples were then transferred into capillaries and measured for CEST signal at 2 ppm for cytosine and 2.4 ppm for 5FC.
(§5) Studies were performed using a 500 MHz Bruker NMR spectrometer. ^19F NMR spectra of the enzymatic mixture or aqueous solutions of 10 mM 5FC and 5FU standards (FIG. 30 a and b) were acquired using a single-pulse sequence with a flip angle of 90°, TR=5 sec, and NA=32, carried out at 25° C. with the spectra centered at the resonance frequency of 5FC. NMR data were processed and plotted using Topspin (Bruker, M A). For the cell culture media incubated with 10 mM 5FC for 24 and 48 hours for all three cell types, the ^19F NMR spectrum was measured using the same protocol, except the number of averages was changed to 64 to improve SNR. 5FU peaks were only detected for HEK293FT cells after 24-hour and for 9L cells after 48 hours (FIG. 30 c,d). The complete results of the conversion detected using F NMR are listed in Table 1, as quantified by a conversion rate=peak area(5FU)/(peak area(5FU)+peak area(5FC)).

9L cells [3] = experiment: 19F NMR detection of conversion of 5FC to 5FU, 9L cells; format: cell-based, Rat; set-up: key: (−): no 5FU was detected; settings: 10 mM 5FC
Description: as §4, §5

9L = experiment: Cell proliferation assay, 9L; format: cell-based, Rat; settings: CD-transduced 9L, 10 mM 5FC, 40 hours
Description: as §3

HEK293FT cells [4] = experiment: 19F NMR detection of conversion of 5FC to 5FU, HEK293FT cells; format: cell-based, Human; set-up: key: (−): no 5FU was detected; settings: 24 hours, 10 mM 5FC
Description: as §4
as §5, with “NMR data were processed and plotted using Topspin (Bruker, M A).” left out, “The complete results of the conversion detected using F NMR are listed in Table 1, as quantified by a conversion rate=peak area(5FU)/(peak area(5FU)+peak area(5FC)).” left out

HEK293FT cells [5] = experiment: CEST MRI of culture media, CDase activity in HEK293FT cells; format: cell-based, Human; settings: HEK-293FT; 7 mM cytosine or 10 mM 5FC
Source text: as §1, §2

9L^HSV1-tk cells = experiment: In vitro uptake assay; format: cell-based, rat; settings: 1 and 3 h of incubation, 1 μCi
Description: One million cells (9L^wt and 9L^HSV1-tk in triplicates) were incubated in […] medium containing 1 μCi [^125I]FIAU at 37° C. for 1 and 3 h. Cells were pelleted by centrifugation and washed 3 times with cold PBS. Gamma counter was used to monitor the radioactivity of the incubating medium and the incubated cells. [^125I]FIAU uptake was determined as the relative radioactivity (in percentage) of the cells to that of the incubating [^125I]FIAU medium (without cells).

HSV1-TK = biological target: T2, HSV1-TK (Human herpesvirus 1, UniProt P0DTH5); experiment: SPECT/CT imaging of HSV1-TK expression; format: in vivo, mice; settings: 3 h after iv injection
T2 construct: V5; expressed in transfected cells; host or cells: 9L rat glioma cells transfected with pcDNA3.1-HSV1-tk, single G418-selected clone, implanted in NOD-SCID mouse brain
T2 sequence (P0DTH5 whole entry): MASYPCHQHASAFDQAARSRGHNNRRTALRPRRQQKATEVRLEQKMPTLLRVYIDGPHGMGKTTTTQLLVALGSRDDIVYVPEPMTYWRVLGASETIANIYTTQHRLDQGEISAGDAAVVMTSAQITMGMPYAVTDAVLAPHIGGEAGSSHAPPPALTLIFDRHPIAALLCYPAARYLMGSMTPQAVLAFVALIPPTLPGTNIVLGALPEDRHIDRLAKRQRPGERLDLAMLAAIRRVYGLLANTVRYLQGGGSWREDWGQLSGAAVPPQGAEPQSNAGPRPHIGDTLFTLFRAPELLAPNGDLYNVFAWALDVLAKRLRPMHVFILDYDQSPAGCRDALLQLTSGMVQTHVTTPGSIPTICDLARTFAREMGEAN
Description: An X-SPECT small-animal SPECT/CT system (Gamma Medica-Ideas) was used for image acquisition as previously described (Nimmagadda et al., J. Nucl. Med. 2009, 50, 1124). Briefly, seven days after cell implantation, the mice were injected iv with 50.3 MBq (1.36 mCi) of ^[125I]FIAU. SPECT data were acquired 3 h after radiotracer injection, and the obtained images were coregistered with the corresponding 512 slice CT images. Fused SPECT/CT transaxial sections of 1 mm thickness were generated using Amira 5.2.0 software (Visage Imaging Inc.) showing the SPECT signal obtained from the brain.

[6] = Exchange rate estimation by QUEST method; format: physicochemical; settings: pH 7.4, 37° C.; cytosine 2 ppm, 5FC 2.4 ppm
Description: The exchange rate of exchangeable protons with a frequency of 2 ppm for cytosine and 2.4 ppm for 5FC at pH=7.4 was measured using the modified Quantifying Exchange using Saturation Time (QUEST) method (McMahon, M. T. et al. Magn Reson Med 2006, 55, 836). In brief, the CEST contrast for samples containing 20 mM cytosine or 5FC (40 mM of amine protons) at pH 7.4 was measured with saturation delays of 0.5, 1, 1.5, 2, 3, 5, and 9.5 sec, using a saturation field strength of 5.9 μT (300 Hz) and a repetition time (TR) set to 10 sec, using the RARE imaging sequence described above. The calculated MTRasym values were then fit using numerical solutions to the Bloch-McConnel equations with an exchange rate (kex). The water T1w and T2w were experimentally determined as approximately 4 sec and 1.6 sec, respectively, using the saturation recovery spin echo method and the CPMG multi-echo spin echo sequence, respectively. The fixed model parameters were water solute R1s=0.71 Hz and solute R2s=39 Hz.

Dm-dNK = biological target: T3, Dm-dNK (Drosophila melanogaster, UniProt Q9XZT6); experiment: Fluorescence of cell lysates after incubation with pyrrolo-dC; format: cell-based, rat; settings: 2 mM, 4 hours
T3 construct: expressed in transfected cells; host or cells: 9L rat glioma cells transfected with a pcDNA vector
T3 sequence (Q9XZT6 whole entry): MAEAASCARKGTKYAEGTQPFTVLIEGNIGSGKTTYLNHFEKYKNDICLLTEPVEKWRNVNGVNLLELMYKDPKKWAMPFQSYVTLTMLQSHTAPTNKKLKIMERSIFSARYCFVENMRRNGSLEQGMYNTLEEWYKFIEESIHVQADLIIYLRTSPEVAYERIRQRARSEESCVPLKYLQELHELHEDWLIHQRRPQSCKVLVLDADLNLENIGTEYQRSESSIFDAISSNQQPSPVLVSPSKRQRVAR
Description: (§6) Pyrrolo-dC was dissolved in 10 mM PBS at 20 mM concentration. CEST MRI experiments were performed on an 11.7T Bruker Avance system as previously described (G. Liu et al., Contrast Media Mol Imaging 5, 162 (2010)). A modified RARE (TR/TE=6000/9.4 ms) including a magnetization transfer module (B1=4.7 μT/4000 ms) was used to acquire CEST weighted images. The absolute water resonant frequency shift was measured using a modified WASSR method, with the same parameters as in CEST imaging except TR=1.5 sec and saturation pulse of B1=0.5 μT/250 ms. Mean CEST-spectra were derived from a ROI for each sample, after B0 correction for each voxel using MatLab. MTR asymmetry (MTRasym)=100×(S^−Δω−S^+Δω/S0 was computed at different offsets Δω. 9L rat glioma, engineered to express Drosophila melanogaster 2′-deoxynucleoside kinase (Dm-dNK; 9L^Dm-dNK) and control, non-expressing cells (9L^wt), 5×10^6 cells per group, were incubated for 4 hours at cell-culture medium containing 2 mM pyrrolo-dC. Then, the cells were washed with PBS, lysed and fluorescence was measured in triplicates using a plate reader (lex355 nm/lem460 nm).

[7] = CEST MRI of pyrrolo-dC in PBS; format: physicochemical; settings: 20 mM in PBS, 5.8 ppm, 11.7T
Description: as §6

Q: For `Nc1nc(=O)[nH]cc1F` [5FC, 5-fluorocytosine], which “relative change in MTRasym” value (9L cells [1]) is on record?
A: 12%

Q: What about the “conversion by recombinant CDase after 24 h” value [2] of the same compound?
A: not the case

Q: And the “number of viable cells after 5FC treatment” value (HEK293FT)?
A: considerable decrease in the number of viable cells

Q: What about the “19F NMR conversion of 5FC to 5FU” value (C17.2 cells; C17.2 CD, 24 hours) of the same compound?
A: (−)

Q: And the “19F NMR conversion of 5FC to 5FU” value (C17.2 cells; C17.2 CD, 48 hours)?
A: (−)

Q: What about the “19F NMR conversion of 5FC to 5FU” value (C17.2 cells; C17.2 WT, 24 hours) of the same compound?
A: (−)

Q: And the “19F NMR conversion of 5FC to 5FU” value (C17.2 cells; C17.2 WT, 48 hours)?
A: (−)

Q: And the “19F NMR conversion of 5FC to 5FU” value (9L cells [3]; 9L CD, 24 hours)?
A: (−)

Q: And the “19F NMR conversion of 5FC to 5FU” value (9L cells [3]; 9L CD, 48 hours)?
A: 8.5%

Q: What about the “19F NMR conversion of 5FC to 5FU” value (9L cells [3]; 9L WT, 24 hours) of the same compound?
A: (−)

Q: And the “19F NMR conversion of 5FC to 5FU” value (9L cells [3]; 9L WT, 48 hours)?
A: (−)

Q: And the “number of viable cells after 5FC treatment” value (9L)?
A: considerable decrease in the number of viable cells

Q: And the “19F NMR conversion of 5FC to 5FU” value (HEK293FT cells [4]; HEK293FT CD)?
A: 38.9%

Q: And the “19F NMR conversion of 5FC to 5FU” value (HEK293FT cells [4]; HEK293FT WT)?
A: (−)

Q: And the “incubation time at which a significant difference in MTRasym between transduced and nontransduced cells was observed” value (HEK293FT cells [5])?
A: 24 h

Q: Which results are given for `O=c1[nH]c(=O)n([C@@H]2O[C@H](CO)[C@@H](O)[C@@H]2F)cc1[125I]` [[^125I]FIAU]?
A: uptake in 9L^HSV1-tk cells compared to 9L^wt cells (9L^HSV1-tk cells): significant accumulation; accumulation in tumors by SPECT/CT (HSV1-TK): only at the ^9LHSV1-tk tumor

Q: With `Nc1cc[nH]c(=O)n1` [cytosine] as the compound, how does the “relative change in MTRasym” value (9L cells [1]) read?
A: 50%

Q: What about the “conversion by recombinant CDase after 24 h” value [2] of the same compound?
A: nearly complete

Q: What about the “exchange rate (kex) of the amine protons, QUEST” value [6] of the same compound?
A: 8.1×10^2 Hz

Q: And the “incubation time at which a significant difference in MTRasym between transduced and nontransduced cells was observed” value (HEK293FT cells [5])?
A: 4 h

Q: What does the source list for `Cc1cc2cn([C@H]3C[C@H](O)[C@@H](CO)O3)c(=O)nc2[nH]1` [pyrrolo-dC, Pyrrolo-2′-deoxycytidine]?
A: fluorescence of lysate of incubated 9L^Dm-dNK cells (Dm-dNK): high fluorescence level; fluorescence of lysate of incubated 9L^wt cells (Dm-dNK): no fluorescence was detected; CEST contrast (MTRasym maps) [7]: high CEST contrast
